Columns and labels:
[1] = test system: MIA-induced osteoarthritis rat model (mechanical allodynia); assay: Analgesic efficacy: paw withdrawal threshold (Von Frey, dynamic plantar aesthesiometer) in MIA-induced osteoarthritis rats; type: in vivo, Sprague Dawley rats; settings: G3 acetaminophen 300 mg/kg+tramadol HCl 30 mg/kg, G4 polmacoxib 0.3 mg/kg, G5 tramadol HCl 30 mg/kg
Description: To evaluate analgesic efficacy, paw withdrawal threshold (PWT, g) was measured using a dynamic planter aesthesiometer (Ugo Basile S.R.L, Italy).
Von Frey filament used in this experiment has a constant pressure during bending, thereby imparting a constant stimulation. At this time, physical allodynia appears as an avoidance response, thereby enabling quantification of the pain index.
1) The pain suppression effect was measured by imparting physical stimulation with Von Frey filament using Dynamic plantar aesthesiometer (UGO BASILE 37450, Italy).
2) Rats were placed individually in each acrylic cage, allowing the rats to stay for 15 minutes to habituate to the new environment.
3) After habituation, the aesthesiometer was set to 0 ˜ 50 g and 0 ˜ 20 s. The measurement of allodynia by stimulation of the stimulator is performed by stimulating the bottom part of the affected foot, increasing the force incrementally (0-50 g), and measuring the hind paw withdraw threshold (force at the moment when the test body avoided the stimulator:gram) in triplicate at 5 min intervals.
4) The paw withdrawal threshold (PWT) was measured in duplicate at a fixed time within 2 weeks (day 10) and within 3 weeks (day 17) after administration of the test substance.

[2] = Body weight change and clinical observation in MIA-induced osteoarthritis rat model; settings: MIA osteoarthritis SD rats, oral once daily 3 weeks; G3 acetaminophen 300 mg/kg+tramadol HCl 30 mg/kg, G4 polmacoxib 0.3 mg/kg, G5 tramadol HCl 30 mg/kg
Description: In order to evaluate therapeutic effect of osteoarthritis, an animal model of osteoarthritis was prepared in Sprague Dawley rats (n=10 per group).
1) Monosodium iodoacetate (MIA, I2512, Sigma, Poole, UK) was dissolved in 0.9% sterile saline for injection at a concentration of 60 mg/ml and prepared on the day of the experiment (day 0).
2) After group separation, animals (Sprague Dawley rats) were placed in an anesthesia chamber (Matrix, US/VME-2) and anesthetized using diethyl ether. Thereafter, subjects in the induced group (G2 to G9) were injected once with 50 μl of MIA per subject (MIA 3 mg/head) into a left knee joint space via a patellar tendon using an insulin syringe (BD™ insulin syringe with Ultra-Fine™ Short Needle, 31 gauge). The number of animals in each group was 10, and the negative control group (G1) was injected once with 50 μl of saline at the same position in the left knee joint.
Group separation was performed only on animals judged to have no quarantine abnormalities during acclimation period, followed by MIA administration. On the 6th day after MIA administration, the weight bearing of hind leg for a total of 100 subjects administered with MIA was measured and the affected subjects with high weight bearing of left hind leg were sequentially excluded to select 70 subjects. […]

[3] = test system: MIA-induced osteoarthritis rat model (tissues of liver and stomach); assay: Histopathology of stomach and liver (H&E); type: in vivo, Sprague Dawley rats; settings: G5 tramadol HCl 30 mg/kg; for gastric tissue analysis / gastric irritation, summary in words / epithelial detachment of cardiac gland (stomach histopathology): G4 polmacoxib 0.3 mg/kg; for gastric tissue analysis / gastric irritation, summary in words: co-administration groups G6 and G7 (both doses); for epithelial detachment of cardiac gland (stomach histopathology): mild level in G3 and G4, G3 acetaminophen 300+tramadol HCl 30 mg/kg
From the text: Tissue sections were stained for histological evaluation.
1) Tissues of liver and stomach among isolated organs were sufficiently immobilized in 10% neutral buffered formalin solution, followed by general tissue treatment procedures such as trimming, dehydration and paraffin embedding to prepare tissue sections and cut them to about 4 μm. Thereafter, they were stained with Hematoxylin & Eosin (H&E) and examined microscopically.

[4] = test system: MIA-induced osteoarthritis rat model (knee joint); assay: Histological evaluation of knee joint (H&E, safranin O-fast green, modified Mankin score); type: in vivo, Sprague Dawley rats; settings: compared to positive control group G3; G5 tramadol HCl 30 mg/kg, co-administration groups G6 and G7 (both doses)
Description: 2) The collected knee joint tissues were immobilized in 10% formalin for 24 hours, and decalcificated for 72 hours while exchanging the solution with 10% formic acid at a 24-hour time interval prior to tissue treatment. The sagittal section of the knee joint was prepared through a coronal section so that the medial and lateral condyle articular surface of femur and tibia were well identified.
3) Subsequently, after a general tissue treatment procedure such as dehydration, clearing and penetration, paraffin embedding was performed and a 5 μm thin slice of knee joint was prepared with a rotary microtome. It was subject to deparaffinization and hydration, followed by Hematoxylin & Eosin (H&E) staining.
4) For safranin-O fast green (SOFG) staining, after deparaffinization and hydration, the thin slice of knee joint was reacted in Weigert's iron hematoxylin solution (HT110232, Sigma, St Louis, USA) for 10 minutes and washed with water, and then stained in 0.02% fast green (FCF) solution (F7258, Sigma, St Louis, USA) for 5 minutes. Subsequently, it was reacted in 1% acetic acid solution and then stained with 0.1% safranin O solution (S2255, Sigma, St Louis). The slide stained with safranin O-fast green was washed for 5 minutes to have clear color of nucleus. After dehydration and clarification, it was sealed. […]

[5] = test system: MIA-induced osteoarthritis rat model (stomach, liver); assay: Gross necropsy observation after completion of the experiment; settings: n=10 per group, G5 tramadol HCl 30 mg/kg, oral once daily 3 weeks
MMP-3 = settings: MIA osteoarthritis SD rats, oral once daily 3 weeks
[6] = 10-day evaluation, induced group G2 14.7 g
[7] = second evaluation (time not given; day 17 per method)

SMILES	paw withdrawal threshold (PWT) [1, 6]	paw withdrawal threshold (PWT) [1, 7]	weight gain at end of test compared to average weight at beginning [2]	gastric tissue analysis / gastric irritation, summary in words [3]	erosion of cardiac gland and fundic gland (stomach histopathology) ([3]; n=10 per group, oral once daily 3 weeks)	epithelial detachment of cardiac gland (stomach histopathology) ([3]; n=10 per group)	cluster formation of chondrocytes, in words [4]	gastric wall thickening at gross necropsy ([5]; G3 acetaminophen 300 mg/kg+tramadol HCl 30 mg/kg)	gastric mucosal petechial hemorrhage at gross necropsy ([5]; G3 acetaminophen 300+tramadol HCl 30 mg/kg, G7 polmacoxib 0.3+tramadol HCl 30 mg/kg)	nodules on the surface of liver at gross necropsy [5]	level of MMP-3 in serum obtained after 3 weeks of treatment, in words (MMP-3)
COc1cccc(C2(O)CCCCC2CN(C)C)c1.Cl (stereo not drawn) [tramadol hydrochloride, 2-(dimethylaminomethyl)-1-(3-methoxyphenyl)]	26.3 g	26.3 g	18.5%	epithelial detachments of cardia and pyloric and erosion	4 cases	2 cases	improvement effects compared to the positive control group G3	3 cases	3 cases	1 case	
CC1(C)OC(c2ccc(S(N)(=O)=O)cc2)=C(c2cccc(F)c2)C1=O [polmacoxib, 5-(4-(aminosulfonyl)-phenyl)-2,2-dimethyl-4-(3-fluorophenyl)-3(2H)-furanone]	24.2 g	24.2 g		epithelial detachment of pyloric		4 cases					lower MMP-3 levels compared to the groups G3 and G5

— US20230157991A1, “PHARMACEUTICAL COMPOSITION FOR TREATING ACUTE AND CHRONIC PAIN, CONTAINING POLMACOXIB AND TRAMADOL” (CrystalGenomics, Inc., priority 2017, published 2023)
